This is an account of results in patent US8263791B2, “Method and reagent for protein analysis” (National Institute of Advanced Industrial Science and …, priority 2008, dated 2012).

Data set [1] deals with T1, BSA (Bos taurus, UniProt P02769).
T1 construct: purchased PIERCE
Briefly: Evaluation of protein detection using Compound 3. Details: key to Detection: +: Band could be detected.; −: No band could be detected. As to the method:
Protein samples were prepared as follows: Sample buffer (0.0625 M Tris-HCl (pH 6.8), 5% 2-mercaptoethanol, 2% SDS, 20% glycerol, and 0.005% BPB) was added to 2.0 mg/mL commercially available BSA (PIERCE). to dilute it to concentrations of 200, 60, 30, 12, 6, 3, and 0.2 ng/μL, respectively. These protein samples were heated at 80° C. for 5 minutes and then left to stand to cool.
Conditions for electrophoresis are as follows: • Electrophoresis apparatus: ERICA XVE-001C (DRC Co., Ltd.) • Polyacrylamide gel: XV PANTERA Gel (DRC Co., Ltd.) • Buffer for electrophoresis: electrophoresis buffer attached to XV PANTERA Gel • Fluorescence imaging analyzer: LS400 (TECAN GROUP LTD) • Excitation wavelength: 543 nm; detection wavelength: 590 nm.
Each of the above prepared samples was applied to a gel at 5 μL/well (1000, 300, 150, 60, 30, 15, and 1 ng/band, respectively), followed by electrophoresis.
(§1) After electrophoresis, the gel was immediately immersed in distilled water for 20 to 30 minutes. Subsequently, the gel was transferred to another container and then a staining solution (distilled water:methanol=1:1 (v/v)) in which Compound 3 (100 μg/mL) had been dissolved was added. After 30 minutes of immersion, the gel was transferred to another container and then immersed in a wash solution (water:methanol=90:10 (v/v)) for decoloration. The gel was observed using a fluorescence imaging analyzer.

Data set [2] is described as follows: Water solubility / precipitation in the staining solution. Type of data set: physicochemical. The procedure: After electrophoresis, the gel was immediately immersed in a solution (I) (purified water, 1% Tween80 aqueous solution, or 1% Tween20 aqueous solution) for a predetermined period of time (20 minutes or 30 minutes). Subsequently, the gel was transferred to another container and then a buffer (purified water/25 mM phosphate buffer (pH 2.5)/methanol=45/45/10 (v/v)) in which Compound 1 (100 μg/mL) had been dissolved was added. After being left to stand for 10 minutes, the gel was transferred to another container and then immersed in a solution (II) (purified water, 1% Tween80 aqueous solution, or 1% Tween20 aqueous solution) for decoloration.
(§2) Protein detection was carried out using Compound 1 and Compound 2 synthesized in Example 1 under analysis conditions described in Example 3. After electrophoresis, the gel was first immersed in 1% Tween80 aqueous solution for 20 minutes and then immersed in a buffer containing Compound 1 (60 μg/mL) or Compound 2 (60 μg/mL) for 10 minutes. Subsequently, the gel was transferred to and immersed in a container containing a 1% Tween80 aqueous solution for 30 minutes. […] The total time needed for treatment was 60 minutes. The gel was analyzed using a fluorescence imaging analyzer. When Compound 1 was used, bands containing 2.6 ng or more of proteins could be detected. Compared with the result, the detection limit was 20 ng in the case of Compound 2.
as §1

Data set [3] can be described thus: Measurement of maximum absorption wavelength and maximum fluorescence wavelength. Type of data set: physicochemical. As to conditions: 25 μg/mL in purified water. As to the method: Compound 1 and Compound 2 were separately dissolved in purified water at a concentration of 25 μg/mL. The absorption spectra at a wavelength ranging from 200 nm to 800 nm and the fluorescence spectra at a wavelength ranging from 450 nm to 600 nm were measured. The absorption spectra were measured using U3310 (Hitachi High-Technologies Corporation) and the fluorescence spectra were measured using RF-1500 (Shimadzu Corporation).

Data set [4] relates to Protein Standard Mixture IV (ovotransferrin, albumin, ovalbumin, carboanhydrase, myoglobin, cytochrome C). The data set can be described thus: Evaluation of protein detection using Compound 1 and Compound 2 (staining after electrophoresis, Tween80). Details: key to Detection: +: All bands could be detected.; −: At least one band could not be detected. As to conditions: compound 60 μg/mL. As to the method: Two (2) mL of a stock buffer (a mixture of purified water (4.2 mL), 0.5 M Tris-hydrochloric acid buffer (pH 8.6) (1.0 mL), glycerol (0.8 mL), 100 g/L sodium dodecyl sulfate (1.6 mL), and 2-mercaptoethanol (0.4 mL)) was added to 2 mg of a commercially available molecular weight marker (Protein Standard Mixture IV; Merck & Co., Inc.). The mixture was heated in boiling water for 2 minutes and then cooled. Thirty (30) μL each of the resultant was dispensed in a 0.5-mL microtube and then cryopreserved at −80° C. until the use thereof. A sample diluent (a mixture of purified water (3.8 mL), 0.5 M Tris-hydrochloric acid buffer (pH 8.6) (1.0 mL), glycerol (0.8 mL), 100 g/L sodium dodecyl sulfate (1.6 mL), and 5 g/L bromophenol blue (0.8 mL)) was added to the thawed molecular weight marker, so that a dilution series with protein concentrations ranging from 0.4 ng/μL to 200 ng/μL was prepared.
The marker contained, in terms of mass, equal amounts of ovotransferrin (78 kDa), albumin (66.3 kDa), ovalbumin (42.7 kDa), carboanhydrase (30 kDa), myoglobin (16.9 kDa), and cytochrome C (12.4 kDa).
• Electrophoresis apparatus: RAPIDAS-Mini-Slab electrophoresis chamber AE6450 (ATTO Corporation) • Polyacrylamide gel: Multigel II mini 10/20 (13W) (COSMO BIO Co., Ltd.) • Buffer for electrophoresis: 27.2 mM Tris (hydroxymethyl) aminomethane, 192 mM glycine, 3.5 mM Sodium dodecyl sulfate (pH 8.3) • Fluorescence imaging analyzer: Light capture II (ATTO Corporation)
Each sample of the dilution series prepared in (1) above was applied to a gel at 5 μL/well (lane 1: 167 ng of protein/band; lane 2: 83.3 ng/band; lane 3: 41.7 ng/band; lane 4: 20.8 ng/band; lane 5: 10.4 ng/band; lane 6: 5.2 ng/band; lane 7: 2.6 ng/band; lane 8: 1.3 ng/band; lane 9: 0.7 ng/band; and lane 10: 0.4 ng/band) and then subjected to electrophoresis with constant current of 30 mA for 45 minutes.
as §2

For data set [5] the test system is unchanged. The data set can be described thus: Protein detection with staining carried out during electrophoresis. Details: key to Detection: +: All bands could be detected.; −: At least one band could not be detected. As to conditions: compound 15 μg/mL in electrophoresis buffer. The procedure:
Compound 1 or Compound 2 were dissolved in a buffer for electrophoresis (27.2 mM Tris (hydroxymethyl)aminomethane, 192 mM glycine, and 3.5 mM sodium dodecyl sulfate (pH 8.3)) at a concentration of 15 μg/mL. With the use of the above buffer, the other conditions identical to those described in Example 3 were employed to carry out electrophoresis. After completion of electrophoresis, the gel was transferred to a container containing 1% Tween80 aqueous solution, left to stand for 40 minutes, and then analyzed using a fluorescence imaging analyzer. When Compound 1 was used, bands containing 5.2 ng or more of a protein could be detected.

T1 sequence (P02769 25-607): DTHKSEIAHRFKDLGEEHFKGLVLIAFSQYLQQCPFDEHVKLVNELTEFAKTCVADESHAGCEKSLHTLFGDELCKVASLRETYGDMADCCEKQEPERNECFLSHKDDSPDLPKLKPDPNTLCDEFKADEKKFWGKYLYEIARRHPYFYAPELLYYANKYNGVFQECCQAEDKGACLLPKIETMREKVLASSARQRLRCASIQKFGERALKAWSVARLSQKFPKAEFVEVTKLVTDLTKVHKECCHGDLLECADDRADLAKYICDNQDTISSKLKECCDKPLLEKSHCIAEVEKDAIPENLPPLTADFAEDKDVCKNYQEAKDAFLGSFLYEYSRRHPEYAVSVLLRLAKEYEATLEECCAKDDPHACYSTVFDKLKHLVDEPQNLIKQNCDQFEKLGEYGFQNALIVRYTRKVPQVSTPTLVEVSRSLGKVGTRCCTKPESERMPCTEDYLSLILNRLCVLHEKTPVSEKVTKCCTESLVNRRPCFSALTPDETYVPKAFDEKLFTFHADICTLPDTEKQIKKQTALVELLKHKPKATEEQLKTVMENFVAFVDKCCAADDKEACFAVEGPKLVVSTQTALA

Turning to `CC1=CC(=C(C#N)C#N)C=C(/C=C/c2ccc(O)c3ccccc23)O1` [Compound 3], the “Sensitivity lower than that of the compound of the present invention” value in data set [1] is recorded as not below 10 times. The Detection entry in data set [1] (BSA 1 ng/band, compound 100 μg/mL) is “−”; in data set [1] (BSA 15 ng/band, compound 100 μg/mL) it was “−”; in data set [1] (BSA 30 ng/band, compound 100 μg/mL), “+”; in data set [1] (BSA 60 ng/band, compound 100 μg/mL), “+”; in data set [1] (BSA 150 ng/band, compound 100 μg/mL), “+”; in data set [1] (BSA 300 ng/band, compound 100 μg/mL), “+”. Besides, in data set [1] (BSA 1000 ng/band, compound 100 μg/mL), the Detection entry is “+”. Further, the Protein detection sensitivity in data set [1] (BSA, compound 100 μg/mL) was found to be 30 ng. Moreover, the “False positive spots after washing step” value in data set [1] (wash solution water:methanol=90:10) is recorded as “insoluble matter adhering to the gel appeared as false positive spots”. For the same compound, the Solubility in water entry in data set [2] is reported as “hardly soluble in water”. In addition, the “Precipitation in the staining solution during staining” value in data set [2] (100 μg/mL in distilled water:methanol=1:1) was “precipitated in the staining solution”.

In the case of `CC1=CC(=C(C#N)C#N)C=C(/C=C/c2ccccc2S(=O)(=O)[O-])O1.[Na+]` [Compound 2, (E)-2-(2-(4-(dicyanomethylene)-6-methyl-4H-pyrane-2-yl)vinyl)sodium Benzenesulfonate], the “Excitation wavelength for maximum fluorescence” value in data set [3] was 440 nm. In addition, the Maximum absorption wavelength in data set [3] is 388 nm. Also, in data set [3], the Maximum fluorescence wavelength amounted to 511 nm. Also, the Detection result in data set [4] (Lane 1, protein 167 ng/band) is listed as “+”; in data set [4] (Lane 2, protein 83.3 ng/band), “+”; in data set [4] (Lane 3, protein 41.7 ng/band), “+”; in data set [4] (Lane 4, protein 20.8 ng/band), “+”; in data set [4] (Lane 5, protein 10.4 ng/band), “−”; in data set [4] (Lane 6, protein 5.2 ng/band) it was “−”. For the same compound, the Detection result in data set [4] (Lane 7, protein 2.6 ng/band) is given as “−”; in data set [4] (Lane 8, protein 1.3 ng/band) it was “−”; in data set [4] (Lane 9, protein 0.7 ng/band) it was “−”; in data set [4] (Lane 10, protein 0.4 ng/band), “−”; in data set [5] (Lane 1, protein 167 ng/band), “−”; in data set [5] (Lane 2, protein 83.3 ng/band) it was “−”. The Detection entry in data set [5] (Lane 3, protein 41.7 ng/band) is “−”; in data set [5] (Lane 4, protein 20.8 ng/band) it was “−”; in data set [5] (Lane 5, protein 10.4 ng/band) it was “−”; in data set [5] (Lane 6, protein 5.2 ng/band), “−”; in data set [5] (Lane 7, protein 2.6 ng/band), “−”; in data set [5] (Lane 8, protein 1.3 ng/band), “−”. Moreover, the Detection entry in data set [5] (Lane 9, protein 0.7 ng/band) is given as “−”; in data set [5] (Lane 10, protein 0.4 ng/band), “−”. In data set [4] (1% Tween80 before and after staining), the “Detection limit (protein per band that could be detected)” value is 20 ng. For the same compound, the “Protein detection (in words)” value in data set [5] (1% Tween80 40 minutes) is listed as “proteins other than cytochrome C could not be detected”.
